In ChEMBL document CHEMBL5375982, “How Modulator Binding at the Amyloidβ-γ-Secretase Interface Enhances Substrate Binding and Attenuates Membrane Distortion” (J Med Chem, 2023) one finds Activity data, which are given here for one compound.

Common to all, as to assay type: cell-based
For assay [1], the target named is T1, Gamma-secretase (Homo sapiens) (UniProt Q96BI3+Q9NZ42+Q8WW43+P49768+Q92542+P49810). The assay can be described thus: Modulation of gamma-secretase activity in HEK293T cells transfected with APP C99 K28D mutant assessed as increase in processivity at 10 uM incubated for 24 to 30 hrs by ELISA. The settings on record: time 24-30 hrs. (ELISA stands for enzyme-linked immunosorbent assay.)

Assay [2] has as its target T1, Gamma-secretase (Homo sapiens). Kind of assay: Modulation of gamma-secretase activity in HEK293T cells transfected with APP C99 K28E mutant assessed as increase in processivity at 10 uM incubated for 24 to 30 hrs by ELISA. As to conditions: time 24-30 hrs.
For assay [3] the target is unchanged. Kind of assay: Modulation of gamma-secretase activity in HEK293T cells transfected with APP C99 K28R mutant assessed as increase in processivity at 10 uM incubated for 24 to 30 hrs by ELISA. The settings on record: filed as modulator, time 24-30 hrs.
Assay [4] shares this target. Kind of assay: Modulation of gamma-secretase activity in HEK293T cells transfected with wild type APP C99 assessed as increase in processivity at 10 uM incubated for 24 to 30 hrs by ELISA. The settings on record: filed as modulator, time 24-30 hrs.
Assay [5] shares this target. Kind of assay: Modulation of gamma-secretase activity in HEK293T cells transfected with APP C99 K28D mutant assessed as […] in amyloidbeta37 to amyloidbeta40 ratio at 10 uM incubated for 24 to 30 hrs by ELISA. The settings on record: filed as modulator, time 24-30 hrs.
The target is the same in assay [6]. The assay can be described thus: Modulation of gamma-secretase activity in HEK293T cells transfected with APP C99 K28E mutant assessed as […] in amyloidbeta37 to amyloidbeta40 ratio at 10 uM incubated for 24 to 30 hrs by ELISA. As to conditions: filed as modulator, time 24-30 hrs.

Molecules are shown by their SMILES. Activity calls are given as the source filed them. No cut-off for these calls is given here.

Turning to `COc1cc(/C=C2\CCCN([C@@H](C)c3ccc(F)cc3)C2=O)ccc1-n1cnc(C)c1`, the outcome in assay [1] and in assay [2] was inactive. Besides, the result in assay [3], in assay [4], in assay [5] and in assay [6] was Active.
